What was measured:
[1] = target: T1, human TDO (TDO-expressing HEK293 cells) (Homo sapiens, UniProt P48775); assay: Cell based kynurenine assay, TDO-expressing HEK293 cell clones; conditions: TDO-expressing HEK293 cells, 24 hours, geometric mean; read-out: HEK293 TDO Kynurenine GMean IC50 (μM) (Cellular Assay)
T1 construct: expressed in transfected cells
How it was run: (§1)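 IC50 values come from nonlinear regression of kynurenine reduction in supernatants of human IDO1- or TDO-expressing HEK293 cells incubated 24 h with serially diluted compounds, normalised to cell and media-only controls containing 0.2% DMSO.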

[2] = target: T2, Human Tryptophan 2,3-dioxygenase (TDO) (Homo sapiens, UniProt P48775); assay: Human TDO enzymatic assay (kynurenine level); format: biochemical; conditions: 1 nM TDO, 350 μM L-Trp; geometric mean; read-out: TDO GMean: IC50 (μM) (Biochemical Assay)
T2 construct: His tag (N); made in house; host or cells: E. coli
T2 sequence (P48775 whole entry): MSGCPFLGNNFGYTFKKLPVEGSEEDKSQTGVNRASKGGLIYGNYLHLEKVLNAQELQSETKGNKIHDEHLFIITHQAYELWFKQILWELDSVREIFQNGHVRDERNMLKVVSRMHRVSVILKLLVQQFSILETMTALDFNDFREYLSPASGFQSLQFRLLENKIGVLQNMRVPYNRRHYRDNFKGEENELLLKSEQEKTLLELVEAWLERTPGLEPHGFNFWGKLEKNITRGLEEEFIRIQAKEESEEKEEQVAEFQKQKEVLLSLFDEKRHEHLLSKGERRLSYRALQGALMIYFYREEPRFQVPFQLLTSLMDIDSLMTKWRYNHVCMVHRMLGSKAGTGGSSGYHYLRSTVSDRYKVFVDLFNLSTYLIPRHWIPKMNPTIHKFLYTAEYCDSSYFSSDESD
How it was run: (§2)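 IDO conditions: 6 nM His-IDO, 10 μM L-Trp, 5 μM methylene blue, 20 min, RT. TDO conditions: 1 nM His-TDO, 350 μM L-Trp, 0.4 μM methylene blue, 70 min, RT. Both used pH 6.5 phosphate plus ascorbate/catalase, TCA stop at 50° C, kynurenine readout, nonlinear-regression IC50.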

[3] = target: T3, Human Indoleamine 2,3-dioxygenase (IDO) (Homo sapiens, UniProt P14902); assay: Human IDO enzymatic assay (kynurenine level); format: biochemical; conditions: 6 nM IDO, 10 μM L-Trp; geometric mean; read-out: IDO1 GMean: IC50 (μM) (Biochemical Assay)
T3 construct: His tag (N); made in house; host or cells: E. coli
T3 sequence (P14902 whole entry): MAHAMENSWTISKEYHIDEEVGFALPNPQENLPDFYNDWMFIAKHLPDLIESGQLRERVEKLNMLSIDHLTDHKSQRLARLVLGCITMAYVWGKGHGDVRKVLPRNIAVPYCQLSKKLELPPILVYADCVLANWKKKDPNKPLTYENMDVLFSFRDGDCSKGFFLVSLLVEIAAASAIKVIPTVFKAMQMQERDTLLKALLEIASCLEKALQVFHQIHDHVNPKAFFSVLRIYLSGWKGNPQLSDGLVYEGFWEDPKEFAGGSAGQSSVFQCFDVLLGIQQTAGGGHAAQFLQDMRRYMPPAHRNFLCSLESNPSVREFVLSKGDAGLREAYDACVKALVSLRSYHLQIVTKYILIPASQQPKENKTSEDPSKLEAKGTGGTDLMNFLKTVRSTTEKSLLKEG
How it was run: as §2

[4] = target: T4, human IDO (IDO1-expressing HEK293 cells) (Homo sapiens, UniProt P14902); assay: Cell based kynurenine assay, IDO1-expressing HEK293 cell clones; conditions: IDO1-expressing HEK293 cells, 24 hours, geometric mean; read-out: HEK293 IDO1 Kynurenine GMean IC50 (μM) (Cellular Assay)
T4 construct: expressed in transfected cells
T4 sequence (P14902 whole entry): as above
How it was run: as §1

T1 sequence (P48775 whole entry): as the sequence (P48775 whole entry) above

| Compound | IC50 [1] [µM] | IC50 [2] [µM] | IC50 [3] [µM] | IC50 [4] [µM] |
| --- | --- | --- | --- | --- |
| CC(C)(C1CCN(C(=O)NCCS(C)(=O)=O)CC1)C(O)c1cc(Cl)cc2cn[nH]c12 (centres unmarked) [Compound P-0452, 4-(1-(5-chloro-1H-indazol-7-yl)-1-hydroxy-2-methylpropan-2-yl)-N-(2-(methylsulfonyl)ethyl)piperidine-1-carboxamide] | 0.0001 to 10 | 0.0001 to 10 | 0.0001 to 10 | 0.0001 to 10 |
| CC(C)(C1CCN(C(=O)NC2CCNCC2)CC1)C(O)c1cc(Cl)cc2cn[nH]c12 (centres unmarked) [Compound P-0453, 4-(1-(5-chloro-1H-indazol-7-yl)-1-hydroxy-2-methylpropan-2-yl)-N-(piperidin-4-yl)piperidine-1-carboxamide] | > 10 | 0.0001 to 10 | 0.0001 to 10 | > 10 |
| CC(C)(C1CCN(C(=O)CC#N)CC1)C(O)c1cc(Cl)cc2cn[nH]c12 (centres unmarked) [Compound P-0454, 3-(4-(1-(5-chloro-1H-indazol-7-yl)-1-hydroxy-2-methylpropan-2-yl)piperidin-1-yl)-3-oxopropanenitrile] | 0.0001 to 10 | 0.0001 to 10 | 0.0001 to 10 | 0.0001 to 10 |
| CN(C)CC(=O)N1CCC(C(C)(C)C(O)c2cc(Cl)cc3cn[nH]c23)CC1 (centres unmarked) [Compound P-0455, 1-(4-(1-(5-chloro-1H-indazol-7-yl)-1-hydroxy-2-methylpropan-2-yl)piperidin-1-yl)-2-(dimethylamino) ethan-1-one] | 0.0001 to 10 | 0.0001 to 10 | 0.0001 to 10 | 0.0001 to 10 |
| CN(C)CCC(=O)N1CCC(C(C)(C)C(O)c2cc(Cl)cc3cn[nH]c23)CC1 (centres unmarked) [Compound P-0456, 1-(4-(1-(5-chloro-1H-indazol-7-yl)-1-hydroxy-2-methylpropan-2-yl)piperidin-1-yl)-3-(dimethylamino) propan-1-one] | 0.0001 to 10 | 0.0001 to 10 | 0.0001 to 10 | 0.0001 to 10 |
| CC1(C(=O)N2CCC(C(C)(C)C(O)c3cc(Cl)cc4cn[nH]c34)CC2)CC1 (centres unmarked) [Compound P-0457, (4-(1-(5-chloro-1H-indazol-7-yl)-1-hydroxy-2-methylpropan-2-yl)piperidin-1-yl)(1-methylcyclopropyl) methanone] | 0.0001 to 10 | 0.0001 to 10 | 0.0001 to 10 | 0.0001 to 10 |
| CC(C)(C1CCN(C(=O)C2CCOCC2)CC1)C(O)c1cc(Cl)cc2cn[nH]c12 (centres unmarked) [Compound P-0458, (4-(1-(5-chloro-1H-indazol-7-yl)-1-hydroxy-2-methylpropan-2-yl)piperidin-1-yl)(tetrahydro-2H-pyran-4-yl)methanone] | 0.0001 to 10 | 0.0001 to 10 | 0.0001 to 10 | 0.0001 to 10 |
| CC(C)(C1CCN(C(=O)CC(F)(F)F)CC1)C(O)c1cc(Cl)cc2cn[nH]c12 (centres unmarked) [Compound P-0459, 1-(4-(1-(5-chloro-1H-indazol-7-yl)-1-hydroxy-2-methylpropan-2-yl)piperidin-1-yl)-3,3,3-trifluoropropan-1-one] | 0.0001 to 10 | 0.0001 to 10 | 0.0001 to 10 | 0.0001 to 10 |
| CCCC(=O)N1CCC(C(C)(C)C(O)c2cc(Cl)cc3cn[nH]c23)CC1 (centres unmarked) [Compound P-0460, 1-(4-(1-(5-chloro-1H-indazol-7-yl)-1-hydroxy-2-methylpropan-2-yl)piperidin-1-yl)butan-1-one] | 0.0001 to 10 | 0.0001 to 10 | 0.0001 to 10 | 0.0001 to 10 |
| CC(C)(C1CCN(C(=O)CO)CC1)C(O)c1cc(Cl)cc2cn[nH]c12 (centres unmarked) [Compound P-0461, 1-(4-(1-(5-chloro-1H-indazol-7-yl)-1-hydroxy-2-methylpropan-2-yl)piperidin-1-yl)-2-hydroxyethan-1-one] | 0.0001 to 10 | 0.0001 to 10 | 0.0001 to 10 | 0.0001 to 10 |
| O=C(NC1CCOCC1)N1CCC(C(F)(F)C(O)c2cc(Cl)cc3cn[nH]c23)CC1 (centres unmarked) [Compound P-0462, 4-(2-(5-chloro-1H-indazol-7-yl)-1,1-difluoro-2-hydroxyethyl)-N-(tetrahydro-2H-pyran-4-yl)piperidine-1-carboxamide] | 0.0001 to 10 | 0.0001 to 10 | 0.0001 to 10 | 0.0001 to 10 |
| O=C(NC1CCS(=O)(=O)CC1)N1CCC(C(F)(F)C(O)c2cc(Cl)cc3cn[nH]c23)CC1 (centres unmarked) [Compound P-0463, 4-(2-(5-chloro-1H-indazol-7-yl)-1,1-difluoro-2-hydroxyethyl)-N-(1,1-dioxidotetrahydro-2H-thiopyran-4-yl)piperidine-1-carboxamide] | > 10 | 0.0001 to 10 | 0.0001 to 10 | 0.0001 to 10 |
| O=C(NC1COC1)N1CCC(C(F)(F)C(O)c2cc(Cl)cc3cn[nH]c23)CC1 (centres unmarked) [Compound P-0464, 4-(2-(5-chloro-1H-indazol-7-yl)-1,1-difluoro-2-hydroxyethyl)-N-(oxetan-3-yl)piperidine-1-carboxamide] | 0.0001 to 10 | 0.0001 to 10 | 0.0001 to 10 | 0.0001 to 10 |
| O=C(NCC1(O)CC1)N1CCC(C(F)(F)C(O)c2cc(Cl)cc3cn[nH]c23)CC1 (centres unmarked) [Compound P-0465, 4-(2-(5-chloro-1H-indazol-7-yl)-1,1-difluoro-2-hydroxyethyl)-N-((1-hydroxycyclopropyl)methyl)piperidine-1-carboxamide] | 0.0001 to 10 | 0.0001 to 10 | 0.0001 to 10 | 0.0001 to 10 |
| CC(C)(O)CNC(=O)N1CCC(C(F)(F)C(O)c2cc(Cl)cc3cn[nH]c23)CC1 (centres unmarked) [Compound P-0466, 4-(2-(5-chloro-1H-indazol-7-yl)-1,1-difluoro-2-hydroxyethyl)-N-(2-hydroxy-2-methylpropyl) piperidine-1-carboxamide] | 0.0001 to 10 | 0.0001 to 10 | 0.0001 to 10 | 0.0001 to 10 |
| O=C(NCC1CCS(=O)(=O)CC1)N1CCC(C(F)(F)C(O)c2cc(Cl)cc3cn[nH]c23)CC1 (centres unmarked) [Compound P-0467, 4-(2-(5-chloro-1H-indazol-7-yl)-1,1-difluoro-2-hydroxyethyl)-N-((1,1-dioxidotetrahydro-2H-thiopyran-4-yl)methyl)piperidine-1-carboxamide] | > 10 | 0.0001 to 10 | 0.0001 to 10 | 0.0001 to 10 |
| O=C(NCC1CCOCC1)N1CCC(C(F)(F)C(O)c2cc(Cl)cc3cn[nH]c23)CC1 (centres unmarked) [Compound P-0468, 4-(2-(5-chloro-1H-indazol-7-yl)-1,1-difluoro-2-hydroxyethyl)-N-((tetrahydro-2H-pyran-4-yl)methyl)piperidine-1-carboxamide] | 0.0001 to 10 | 0.0001 to 10 | 0.0001 to 10 | 0.0001 to 10 |
| CC(C)(C)OC(=O)N1CCC(C(F)(F)C(O)c2cc(Cl)cc3cn[nH]c23)CC1 (centres unmarked) [Compound P-0469, tert-butyl 4-(2-(5-chloro-1H-indazol-7-yl)-1,1-difluoro-2-hydroxyethyl) piperidine-1-carboxylate] | 0.0001 to 10 | 0.0001 to 10 | 0.0001 to 10 | 0.0001 to 10 |
| CC(C)(C1CCN(C(=O)Nc2cccs2)CC1)C(O)c1cc(Cl)cc2cn[nH]c12 (centres unmarked) [Compound P-0470, 4-(1-(5-chloro-1H-indazol-7-yl)-1-hydroxy-2-methylpropan-2-yl)-N-(thiophen-2-yl)piperidine-1-carboxamide] | 0.0001 to 10 | 0.0001 to 10 | 0.0001 to 10 | 0.0001 to 10 |
| CC(C)(C1CCN(C(=O)NCS(C)(=O)=O)CC1)C(O)c1cc(Cl)cc2cn[nH]c12 (centres unmarked) [Compound P-0471, 4-(1-(5-chloro-1H-indazol-7-yl)-1-hydroxy-2-methylpropan-2-yl)-N-((methylsulfonyl)methyl)piperidine-1-carboxamide] | 0.0001 to 10 | 0.0001 to 10 | 0.0001 to 10 | 0.0001 to 10 |
| CC(C)(C1CCN(C(=O)NCCC(F)(F)F)CC1)C(O)c1cc(Cl)cc2cn[nH]c12 (centres unmarked) [Compound P-0472, 4-(1-(5-chloro-1H-indazol-7-yl)-1-hydroxy-2-methylpropan-2-yl)-N-(3,3,3-trifluoropropyl) piperidine-1-carboxamide] | 0.0001 to 10 | 0.0001 to 10 | 0.0001 to 10 | 0.0001 to 10 |
| CC(C)(C1CCN(C(=O)NCC2CC2)CC1)C(O)c1cc(Cl)cc2cn[nH]c12 (centres unmarked) [Compound P-0473, 4-(1-(5-chloro-1H-indazol-7-yl)-1-hydroxy-2-methylpropan-2-yl)-N-(cyclopropylmethyl) piperidine-1-carboxamide] | 0.0001 to 10 | 0.0001 to 10 | 0.0001 to 10 | 0.0001 to 10 |
| CC(C)(C1CCN(C(=O)C2C(C)(C)C2(C)C)CC1)C(O)c1cc(Cl)cc2cn[nH]c12 (centres unmarked) [Compound P-0474, (4-(1-(5-chloro-1H-indazol-7-yl)-1-hydroxy-2-methylpropan-2-yl)piperidin-1-yl)(2,2,3,3-tetramethylcyclopropyl) methanone] | 0.0001 to 10 | 0.0001 to 10 | 0.0001 to 10 | 0.0001 to 10 |
